Reference: patent US5939405A, “Phosphate derivatives of diaryl 1,3,4-oxadiazolone” (priority 1999, dated 1999)

How the values were obtained:
cortical infarct volume = assay: focal stroke model, permanent MCA and CCA occlusion; type: in vivo; details: 10 μg/kg intravenously, single bolus two hours after MCAO; Wistar rat; infarct measured 24 hours after MCAO; vs vehicle-treated (water) control
Experimental: To determine the ability of the compounds of the present invention to reduce cell loss resulting from neuronal ischemia, a standard focal cerebral ischemia is induced by permanent occlusion of the left middle cerebral artery (MCA) and common carotid artery (CCA) with one hour occlusion of the right CCA in the Wistar rat. The surgeries are performed using the sub-temporal approach of A. Tamura, et al., J. Cereb. Blood Flow Metab., 1, pp. 53-60, (1981) and its modifications [K. Osborne, et al., J. Neurol Neurosurg. Psychiatry, 50, pp. 402-410 (1987) and S. Menzies, et al., Neurosurgery, 31, pp. 100-107, (1992).]
The compound of Example 1 was evaluated in the focal stroke model involving permanent occlusion of the left MCA (MCAO) and CCA (CCAO) and temporary occlusion of the right CCA in the Wistar rat. This procedure results in a reliably large neocortical infarct volume that is measured by means of vital dye exclusion in serial slices through the brain 24 hours after MCAO. In the present test, compounds were administered using an i.v. or i.p. route of administration two hours after occlusion.

[1] = system: non-BK native currents in the oocytes; assay: non-BK (IBTX-insensitive) native current in oocytes, voltage clamp; type: cell-based, Xenopus; details: at the tested concentration; current remaining in presence of 50 nM IBTX
Experimental: (§1) The ability of the compound of Example 1 to open BK channels and increase whole-cell outward (K^+) BK-mediated currents was assessed under voltage-clamp conditions by determining their ability to increase cloned mammalian (mSlo or hSlo) BK-mediated outward current heterologously expressed in Xenopus oocytes [Butler, A., et al., Science, 261, pp. 221-224 (1993); and Dworetzky, S. I., et al., Mol. Brain Res., 27, pp.189-193 (1994)]. The two BK constructs employed represent nearly structurally identical homologous proteins, and have proven to be pharmacologically identical in our tests. To isolate BK current from native (background, non-BK) current, the specific and potent BK channel-blocking toxin iberiotoxin (IBTX) [Galvez, A., et al., J. Biol. Chem,265, pp. 11083-11090 (1990)] was employed at a supramaximal concentration (50 nM). The relative contribution of BK channels current to total outward current was determined by subtraction of the current remaining in the presence of IBTX (non-BK current) from the current profiles obtained in all other experimental conditions (control, drug, and wash). […]

[2] = system: cloned mammalian (mSlo or hSlo) BK channels; assay: BK-mediated outward current in Xenopus oocytes, two-electrode voltage clamp; type: cell-based; details: 1 μM; at least 5 oocytes; mSlo or hSlo expressed in Xenopus oocytes
Experimental: as §1

[3] = rapid screen of prodrug hydrolysis and drug release in plasma; type: in vitro ADME; details: 10 ug/mL in fresh rat plasma at 37° C.; stock 1 mg/mL in PEG-400; analysis 5 minutes after incubation; HPLC
Experimental: A rapid screen to determine the ability of prodrugs to hydrolyze and release the drug (compound of Example 1) is conducted as follows. A 1 mg/mL stock solution of the prodrug is prepared in distilled water or acetonitrile or PEG-400. Plasma from freshly collected rat or human blood is used in this assay. To 1 mL of plasma at 37° C. was added 10 μL of stock solution of prodrug and mixed gently. Immediately after the mixing, 100 μL of plasma was removed and quenched with 300 μL of acetontrile (Zero time sample). Samples were also obtained at 30 minutes and quenched immediately. The quenched samples were centrifuged to obtain a clear supernatant for analysis. The stock solution, T=0 and T=30 samples were analyzed by a HPLC assay that separates the drug from the prodrug. Based on the relative peak areas of prodrug and drug in these samples, different prodrugs are characterized as fast, moderate and slow release agents. For example, in this model, the compound of Example 6 was dissolved in PEG-400 at a concentration of 1 mg/mL and incubated at 10 ug/mL in fresh rat plasma at 37° C.

SMILES | reduction of cortical infarct volume (cortical infarct volume) | effect on non-BK native currents in the oocytes [1] | BK current, % of control of IBTX-sensitive current [2] | conversion of prodrug to the drug (compound of Example 1) [3]
O=c1oc(-c2ccc(C(F)(F)F)cc2)nn1Cc1cc(Cl)ccc1O [Example 1, 3-[(5-Chloro-2-hydroxyphenyl)methyl]-5-[4-(trifluoromethyl)phenyl]-1,3,4-oxadiazol-2(3H)-one] | about 18% | did not effect non-BK native currents | 126 % of control | –
O=C(COP(=O)(O)O)Oc1ccc(Cl)cc1Cn1nc(-c2ccc(C(F)(F)F)cc2)oc1=O [Example 6, 3-[[5-Chloro-2-[[[(phosphonooxy)methyl]carbonyl]oxy]phenyl]methyl]-5-[4-(trifluoromethyl)phenyl]-1,3,4-oxadiazol-2(3H)-one] | – | – | – | conversion of the compound of Example 6 to the compound of Example 1
